In brackets after ≈: the same amount, converted by molar mass. Positions of bridges follow the written chain, without caps; N, C: chain ends. Non-standard residues stand in square brackets, D forms with d. Residues, ends and D or L forms follow the SMILES beside them. Groups on a side chain read outwards from the residue. *: point of attachment. Palmitoyl(16-(5-tetrazolyl)) = O=C(CCCCCCCCCCCCCCCc1nnn[nH]1)*; Lys(CH2CO2H)2 = N[C@@H](CCCCN(CC(=O)O)CC(=O)O)C(=O)O; C18 diacid = O=C(O)CCCCCCCCCCCCCCCCC(=O)*; C17 diacid = O=C(O)CCCCCCCCCCCCCCCC(=O)*; Hyp = O=C(O)[C@@H]1C[C@@H](O)CN1; Orn = NCCC[C@H](N)C(=O)O; Dab = NCC[C@H](N)C(=O)O; AEEA = NCCOCCOCC(=O)O
Key:
physchem = assay: physchem
Experimental: From a stock solution in vehicle, either H2O or 10 mM phosphate, containing 1 mg (as weighed) compound per ml, 8-11 aliquots are withdrawn and pH-adjusted individually with HCl/NaOH, to cover the whole pH range.

MC1 receptor = MC1 receptor (Homo sapiens, UniProt Q01726); assay: biochemical
Experimental: Assay (IV)—Melanocortin Receptor 1 (MC1) Binding Assay
The MC1 receptor binding assay was performed on BHK cell membranes stably expressing the MC1 receptor. The assay was performed in a total volume of 250 μl: 25 μl of ^125NDP-α-MSH (22 pM in final concentration), 25 μl of test compound/control and 200 μl of cell membrane (25 μg/ml). Test compounds were dissolved in DMSO. Radioactively labeled ligand, membranes and test compounds were diluted in buffer: 25 mM HEPES, pH 7.4, 0.1 mM CaCl2, 1 mM MgSO4, 1 mM EDTA, 0.1% HSA and 0.005% Tween™ 20. Alternatively, HSA may be substituted with ovalbumin. The samples were incubated at 30° C. for 90 min. in Costar round-bottom microtiter plates. Incubation was terminated by filtration on a Packard harvester filtermate. Rapid filtration through Packard Unifilter-96 GF/B filters pre-treated with polyetylenimine (PerkinElmer 6005277). The filters were washed with ice-cold 0.9% NaCl 8-10 times. The plates were air-dried at app. 55° C. for 30 min, and 50 μl Microscint 0 (Packard, cat. No. 6013616) was added to each well. The plates were counted in a Topcounter (1 min/well).
The data were analysed by non-linear regression analysis of binding curves, using the Windows™ program GraphPad™ Prism (GraphPad Software, USA).

Sequence of MC1 receptor (Q01726 whole entry): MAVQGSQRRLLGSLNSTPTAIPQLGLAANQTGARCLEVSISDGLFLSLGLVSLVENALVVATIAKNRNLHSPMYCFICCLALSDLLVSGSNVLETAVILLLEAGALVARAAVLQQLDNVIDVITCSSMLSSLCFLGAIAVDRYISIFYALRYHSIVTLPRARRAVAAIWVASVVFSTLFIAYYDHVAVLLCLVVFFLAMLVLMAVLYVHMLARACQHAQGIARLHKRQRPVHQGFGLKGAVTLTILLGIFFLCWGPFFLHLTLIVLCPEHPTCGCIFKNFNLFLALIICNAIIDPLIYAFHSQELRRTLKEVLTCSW

| Structure (SMILES) | solubility (physchem; pH 6.3, Solubility Conc.) [µM] | solubility (physchem; pH 6.7, Solubility Conc.) [µM] | solubility (physchem; pH 7.3, Solubility Conc.) [µM] | solubility (physchem; pH 7.6, Solubility Conc.) [µM] | solubility (physchem; pH 7.9, Solubility Conc.) [µM] | Ki (MC1 receptor) [µM] | solubility (physchem; pH 6.6, Solubility Conc.) [µM] | solubility (physchem; pH 7.2, Solubility Conc.) [µM] | solubility (physchem; pH 7.4, Solubility Conc.) [µM] | solubility (physchem; pH 7.5, Solubility Conc.) [µM] | solubility (physchem; pH 6.9, Solubility Conc.) [µM] | solubility (physchem; pH 7.8, Solubility Conc.) [µM] | solubility (physchem; pH 8.1, Solubility Conc.) [µM] | other results |
| --- | --- | --- | --- | --- | --- | --- | --- | --- | --- | --- | --- | --- | --- | --- |
| CC(=O)N[C@H]1CCCNC(=O)CC[C@@H](C(=O)N2CCC[C@H]2C(=O)N[C@@H](CO)C(=O)N[C@@H](CCCCN)C(=O)N[C@@H](CCC(=O)O)C(=O)N[C@@H](CCC(=O)O)C(=O)N[C@@H](CO)C(=O)N[C@@H](CO)C(=O)N[C@@H](CCC(=O)O)C(=O)N[C@@H](CCCCNC(=O)COCCOCCNC(=O)CCCCCCCCCCCCCCCC(=O)O)C(N)=O)NC(=O)[C@H](Cc2c[nH]c3ccccc23)NC(=O)[C@H](CCCNC(=N)N)NC(=O)[C@@H](Cc2ccccc2)NC(=O)[C@H](Cc2c[nH]cn2)NC1=O [Example 20] (Ac-[Orn]H[dF]RWEPSKEESSEK([AEEA-C17 diacid])-NH2; lactam 1-6) | 399 (≈ 934 µg/mL) | 416 (≈ 974 µg/mL) | 433 (≈ 1010 µg/mL) | 429 (≈ 1000 µg/mL) | 398 (≈ 932 µg/mL) | > 10 | – | – | – | – | – | – | – | solubility (physchem; pH 6, Solubility Conc.): 192 µM (≈ 449 µg/mL); solubility (physchem; pH 6.4, Solubility Conc.): 410 µM (≈ 960 µg/mL); solubility (physchem; pH 7, Solubility Conc.): 420 µM (≈ 983 µg/mL); solubility (physchem; pH 8.2, Solubility Conc.): 439 µM (≈ 1030 µg/mL) |
| CC(=O)N[C@H]1CCCCNC(=O)CC[C@@H](C(=O)N2CCC[C@H]2C(=O)N2CCC[C@H]2C(=O)N[C@@H](CCCNC(=N)N)C(=O)N[C@@H](CC(=O)O)C(=O)N[C@@H](CCCCN(CC(=O)O)CC(=O)O)C(=O)N[C@@H](CCCCNC(=O)COCCOCCNC(=O)CCCCCCCCCCCCCCCc2nnn[nH]2)C(N)=O)NC(=O)[C@H](Cc2c[nH]c3ccccc23)NC(=O)[C@H](CCCNC(=N)N)NC(=O)[C@@H](Cc2ccccc2)NC(=O)[C@H](Cc2c[nH]cn2)NC1=O [Example 21, Ac-c[Lys-His-D-Phe-Arg-Trp-Glu]-Pro-Pro-Arg-Asp-Lys(biscarboxymethyl)-Lys[(2-{2-[16-(tetrazol-5-yl)hexadecanoylamino]ethoxy}ethoxy)acetyl]-NH2] (Ac-KH[dF]RWEPPRD[Lys(CH2CO2H)2]K([AEEA-Palmitoyl(16-(5-tetrazolyl))])-NH2; lactam 1-6) | 36 (≈ 79.7 µg/mL) | – | – | – | 366 (≈ 811 µg/mL) | > 10 | 47 (≈ 104 µg/mL) | 90 (≈ 199 µg/mL) | 175 (≈ 388 µg/mL) | 276 (≈ 611 µg/mL) | – | – | – | solubility (physchem; pH 5.3, Solubility Conc.): 38 µM (≈ 84.2 µg/mL); solubility (physchem; pH 6, Solubility Conc.): 31 µM (≈ 68.7 µg/mL); solubility (physchem; pH 7.7, Solubility Conc.): 360 µM (≈ 797 µg/mL) |
| CC(=O)N[C@H]1CCCNC(=O)CC[C@@H](C(=O)N2CCC[C@H]2C(=O)N2CCC[C@H]2C(=O)N[C@@H](Cc2c[nH]cn2)C(=O)N[C@@H](CCC(=O)O)C(=O)N[C@@H](CCCCN(CC(=O)O)CC(=O)O)C(=O)N[C@@H](CCCCNC(=O)COCCOCCNC(=O)CCCCCCCCCCCCCCCC(=O)O)C(N)=O)NC(=O)[C@H](Cc2c[nH]c3ccccc23)NC(=O)[C@H](CCCNC(=N)N)NC(=O)[C@@H](Cc2ccccc2)NC(=O)[C@H](Cc2c[nH]cn2)NC1=O [Example 22, Ac-c[Orn-His-D-Phe-Arg-Trp-Glu]-Pro-Pro-His-Glu-Lys(biscarboxymethyl)-Lys({2-[2-(16-carboxyhexadecanoylamino)ethoxy]ethoxy}acetyl)-NH2] (Ac-[Orn]H[dF]RWEPPHE[Lys(CH2CO2H)2]K([AEEA-C17 diacid])-NH2; lactam 1-6) | 173 (≈ 376 µg/mL) | 284 (≈ 617 µg/mL) | – | – | – | > 10 | – | 447 (≈ 971 µg/mL) | 438 (≈ 951 µg/mL) | – | 443 (≈ 962 µg/mL) | – | – | solubility (physchem; pH 6.1, Solubility Conc.): 134 µM (≈ 291 µg/mL); solubility (physchem; pH 6.8, Solubility Conc.): 444 µM (≈ 964 µg/mL); solubility (physchem; pH 8, Solubility Conc.): 468 µM (≈ 1020 µg/mL) |
| CC(=O)N[C@H]1CCC(=O)NCCC[C@@H](C(=O)N2CCC[C@H]2C(=O)N2CCC[C@H]2C(=O)N[C@@H](CC(=O)O)C(=O)N[C@@H](CCCCN(CC(=O)O)CC(=O)O)C(=O)N[C@@H](CCCCNC(=O)COCCOCCNC(=O)CCCCCCCCCCCCCCCCC(=O)O)C(N)=O)NC(=O)[C@H](Cc2c[nH]c3ccccc23)NC(=O)[C@H](CCCNC(=N)N)NC(=O)[C@@H](Cc2ccccc2)NC(=O)[C@H](Cc2c[nH]cn2)NC1=O [Example 26, Ac-c[Glu-His-D-Phe-Arg-Trp-Orn]-Pro-Pro-Asp-Lys(biscarboxymethyl)-Lys({2-[2-(17-carboxyheptadecanoylamino)ethoxy]ethoxy}acetyl)-NH2] (Ac-EH[dF]RW[Orn]PPD[Lys(CH2CO2H)2]K([AEEA-C18 diacid])-NH2; lactam 1-6) | – | – | – | – | 478 (≈ 972 µg/mL) | > 10 | – | – | 482 (≈ 981 µg/mL) | – | – | – | – | solubility (physchem; pH 5.5, Solubility Conc.): 49 µM (≈ 99.7 µg/mL); solubility (physchem; pH 5.8, Solubility Conc.): 325 µM (≈ 661 µg/mL); solubility (physchem; pH 6.1, Solubility Conc.): 474 µM (≈ 964 µg/mL); solubility (physchem; pH 6.5, Solubility Conc.): 478 µM (≈ 972 µg/mL); solubility (physchem; pH 6.8, Solubility Conc.): 461 µM (≈ 938 µg/mL); solubility (physchem; pH 7.1, Solubility Conc.): 476 µM (≈ 968 µg/mL); solubility (physchem; pH 7.7, Solubility Conc.): 474 µM (≈ 964 µg/mL) |
| CC(=O)N[C@H]1CCC(=O)NCCCC[C@@H](C(=O)N2CCC[C@H]2C(=O)N2CCC[C@H]2C(=O)N[C@@H](CCCNC(=N)N)C(=O)N[C@@H](CC(=O)O)C(=O)N[C@@H](CCCCN(CC(=O)O)CC(=O)O)C(=O)N[C@@H](CCCCNC(=O)COCCOCCNC(=O)CCCCCCCCCCCCCCCc2nnn[nH]2)C(N)=O)NC(=O)[C@H](Cc2c[nH]c3ccccc23)NC(=O)[C@H](CCCNC(=N)N)NC(=O)[C@@H](Cc2ccccc2)NC(=O)[C@H](Cc2c[nH]cn2)NC1=O [Example 27, Ac-c[Glu-His-D-Phe-Arg-Trp-Lys]-Pro-Pro-Arg-Asp-Lys(biscarboxymethyl)-Lys[(2-{2-[16-(tetrazol-5-yl)hexadecanoylamino]ethoxy}ethoxy)acetyl]-NH2] (Ac-EH[dF]RWKPPRD[Lys(CH2CO2H)2]K([AEEA-Palmitoyl(16-(5-tetrazolyl))])-NH2; lactam 1-6) | – | – | 394 (≈ 873 µg/mL) | 521 (≈ 1150 µg/mL) | – | > 10 | 42 (≈ 93 µg/mL) | 263 (≈ 582 µg/mL) | 459 (≈ 1020 µg/mL) | 474 (≈ 1050 µg/mL) | 65 (≈ 144 µg/mL) | 481 (≈ 1070 µg/mL) | 435 (≈ 963 µg/mL) | – |
| CC(=O)N[C@H]1CCC(=O)NCC[C@@H](C(=O)N2C[C@H](O)C[C@H]2C(=O)N2C[C@H](O)C[C@H]2C(=O)N[C@@H](CCCNC(=N)N)C(=O)N[C@@H](CC(=O)O)C(=O)N[C@@H](CCCCN(CC(=O)O)CC(=O)O)C(=O)N[C@@H](CCCCNC(=O)COCCOCCNC(=O)CCCCCCCCCCCCCCCc2nnn[nH]2)C(N)=O)NC(=O)[C@H](Cc2c[nH]c3ccccc23)NC(=O)[C@H](CCCNC(=N)N)NC(=O)[C@@H](Cc2ccccc2)NC(=O)[C@H](Cc2c[nH]cn2)NC1=O [Example 32, Ac-c[Glu-His-D-Phe-Arg-Trp-Dab]-Hyp-Hyp-Arg-Asp-Lys(biscarboxymethyl)-Lys[(2-{2-[16-(tetrazol-5-yl)hexadecanoylamino]ethoxy}ethoxy)acetyl]-NH2] (Ac-EH[dF]RW[Dab][Hyp][Hyp]RD[Lys(CH2CO2H)2]K([AEEA-Palmitoyl(16-(5-tetrazolyl))])-NH2; lactam 1-6) | – | 40 (≈ 88.7 µg/mL) | – | 324 (≈ 719 µg/mL) | 674 (≈ 1500 µg/mL) | > 10 | – | 89 (≈ 197 µg/mL) | – | 258 (≈ 572 µg/mL) | – | 640 (≈ 1420 µg/mL) | 230 (≈ 510 µg/mL) | solubility (physchem; pH 7, Solubility Conc.): 60 µM (≈ 133 µg/mL) |
| CC(=O)N[C@H]1CCNC(=O)C[C@@H](C(=O)N2CCC[C@H]2C(=O)N2CCC[C@H]2C(=O)N[C@@H](Cc2c[nH]cn2)C(=O)N[C@@H](CCC(=O)O)C(=O)N[C@@H](CCCCN(CC(=O)O)CC(=O)O)C(=O)N[C@@H](CCCCNC(=O)COCCOCCNC(=O)CCCCCCCCCCCCCCCc2nnn[nH]2)C(N)=O)NC(=O)[C@H](Cc2c[nH]c3ccccc23)NC(=O)[C@H](CCCNC(=N)N)NC(=O)[C@@H](Cc2ccccc2)NC(=O)[C@H](Cc2c[nH]cn2)NC1=O [Example 33, Ac-c[Dab-His-D-Phe-Arg-Trp-Asp]-Pro-Pro-His-Glu-Lys(biscarboxymethyl)-Lys[(2-{2-[16-(tetrazol-5-yl)hexadecanoylamino]ethoxy}ethoxy)acetyl]-NH2] (Ac-[Dab]H[dF]RWDPPHE[Lys(CH2CO2H)2]K([AEEA-Palmitoyl(16-(5-tetrazolyl))])-NH2; lactam 1-6) | – | 485 (≈ 1050 µg/mL) | 488 (≈ 1060 µg/mL) | – | – | > 10 | 468 (≈ 1010 µg/mL) | – | – | 503 (≈ 1090 µg/mL) | 487 (≈ 1060 µg/mL) | 489 (≈ 1060 µg/mL) | 511 (≈ 1110 µg/mL) | solubility (physchem; pH 6.4, Solubility Conc.): 122 µM (≈ 264 µg/mL); solubility (physchem; pH 8.6, Solubility Conc.): 473 µM (≈ 1030 µg/mL) |
